In test [1] the test system is Aspergillus fumigatus. Nature of the test: Antifungal activity against Aspergillus fumigatus assessed as zone of inhibition at 100 ug/ml. The format is functional. To be noted: read-out: IZ.
Test [2] deals with Aspergillus niger. Put plainly: Antifungal activity against Aspergillus niger assessed as zone of inhibition at 100 ug/ml. The format is functional. To be noted: read-out: IZ.
The test system of test [3] is Yersinia pseudotuberculosis. Nature of the test: Antibacterial activity against Yersinia pseudotuberculosis. The format is functional.
For test [4], the system named is Staphylococcus aureus. Nature of the test: Antibacterial activity against Staphylococcus aureus. The class given is functional.
Test [5] has as its system Bacillus cereus. Nature of the test: Antibacterial activity against Bacillus cereus. The class given is functional.
In test [6] the test system is Enterococcus faecalis. Nature of the test: Antibacterial activity against Enterococcus faecalis. The class given is functional.
Test [7] deals with Escherichia coli. Put plainly: Antibacterial activity against Escherichia coli. The class given is functional.
The subject of test [8] is Pseudomonas aeruginosa. Put plainly: Antibacterial activity against Pseudomonas aeruginosa. The format is functional.
Test [9] has as its system Mycolicibacterium smegmatis. Nature of the test: Antibacterial activity against Mycobacterium smegmatis. The format is functional.
Test [10] relates to Pseudomonas aeruginosa. Put plainly: Antibacterial activity against Pseudomonas aeruginosa assessed as zone of inhibition at 100 ug/ml. To be noted: read-out: IZ.
Test [11] deals with Staphylococcus aureus. Put plainly: Antibacterial activity against methicillin-resistant Staphylococcus aureus. The format is functional.
Test [12] concerns Bacillus cereus. Nature of the test: Antibacterial activity against Bacillus cereus assessed as zone of inhibition at 100 ug/ml. The class given is functional. The note with it: read-out: IZ.
The test system of test [13] is Escherichia coli. Put plainly: Antibacterial activity against multi drug-resistant Escherichia coli. The format is functional.
The subject of test [14] is Staphylococcus epidermidis. Put plainly: Antibacterial activity against Staphylococcus epidermidis assessed as zone of inhibition at 100 ug/ml. The note with it: read-out: IZ.
Test [15] deals with Escherichia coli. Put plainly: Antibacterial activity against Escherichia coli assessed as zone of inhibition at 100 ug/ml. The note with it: read-out: IZ.
The test system of test [16] is Pseudomonas aeruginosa. Nature of the test: Antibacterial activity against Pseudomonas aeruginosa assessed as zone of inhibition at 10 mg/ml after 3 to 7 days by cup diffusion method. The class given is functional. To be noted: read-out: IZ.
Test [17] relates to Bacillus subtilis. Put plainly: Antibacterial activity against Bacillus subtilis after 3 to 7 days by cup diffusion method. The format is functional. The note with it: Bacillus subtilis; read-out: MIC.
Test [18] deals with Staphylococcus aureus. Put plainly: Antibacterial activity against Staphylococcus aureus after 3 to 7 days by cup diffusion method. The class given is functional. The note with it: Staphylococcus aureus; read-out: MIC.
Test [19] has as its system Escherichia coli. Nature of the test: Antibacterial activity against Escherichia coli assessed as zone of inhibition at 10 mg/ml after 3 to 7 days by cup diffusion method. The class given is functional. To be noted: read-out: IZ.
In test [20] the test system is Mycolicibacterium phlei. Put plainly: Antibacterial activity against Mycobacterium phlei clinical isolate assessed as zone of inhibition at 10 mg/ml after 3 to 7 days by cup diffusion method. The class given is functional. The note with it: read-out: IZ.
The subject of test [21] is Aggregatibacter actinomycetemcomitans. Put plainly: Antibacterial activity against Aggregatibacter actinomycetemcomitans ATCC 29524 assessed as zone of inhibition at 10 mg/ml after 3 to 7 days by cup diffusion method. To be noted: read-out: IZ. The format is functional.
The test system is the same in test [22]. Put plainly: Antibacterial activity against Aggregatibacter actinomycetemcomitans ATCC 29524 after 3 to 7 days by cup diffusion method. The format is functional. To be noted: Aggregatibacter actinomycetemcomitans, ATCC 29524; read-out: MIC.
Test [23] has as its target DNA gyrase (Escherichia coli, UniProt P0AES4+P0AES6). Put plainly: Inhibition of Escherichia coli DNA gyrase super-coiling activity using pBR322 DNA as substrate after 30 mins by fluorescence assay. The class given is protein-complex assay.
In test [24] the test system is Escherichia coli. Put plainly: Antibacterial activity against Escherichia coli after 3 to 7 days by cup diffusion method. The class given is functional. The note with it: Escherichia coli; read-out: MIC.
Test [25] relates to Mycolicibacterium phlei. Put plainly: Antibacterial activity against Mycobacterium phlei clinical isolate after 3 to 7 days by cup diffusion method. The format is functional. The note with it: Mycolicibacterium phlei; read-out: MIC.
The test system of test [26] is Bacillus subtilis. Put plainly: Antibacterial activity against Bacillus subtilis assessed as zone of inhibition at 10 mg/ml after 3 to 7 days by cup diffusion method. The format is functional. To be noted: read-out: IZ.
Test [27] has as its system Pseudomonas aeruginosa. Nature of the test: Antibacterial activity against Pseudomonas aeruginosa after 3 to 7 days by cup diffusion method. The class given is functional. To be noted: Pseudomonas aeruginosa; read-out: MIC.
The subject of test [28] is Staphylococcus aureus. Nature of the test: Antibacterial activity against Staphylococcus aureus assessed as zone of inhibition at 10 mg/ml after 3 to 7 days by cup diffusion method. The note with it: read-out: IZ. The format is functional.

Values after ≈ are worked out from the molar mass of the structure shown.

`OC(Cn1cncn1)(Cn1cncn1)c1ccc(F)cc1F` [FLUCONAZOLE]: the zone of inhibition at 100 µg/mL in test [1] is 26 mm; in [2], 29 mm.
As to `CCn1cc(C(=O)O)c(=O)c2cc(F)c(N3CCN(Cn4nc(N5CCN(c6ccc([N+](=O)[O-])cc6)CC5)n(Cc5ccccc5)c4=O)CC3)cc21`, the MIC in test [3], in test [4], in test [5], in test [6], in test [7] and in test [8] was 0.03 to 0.99 µg/mL (≈ 0.0421 to 1.39 µM) throughout. The MIC in test [9] lay within 0.03 to 0.99 µg/mL (≈ 0.0421 to 1.39 µM).
As for `O=C(O)c1cn(C2CC2)c2cc(N3CCNCC3)c(F)cc2c1=O` [CIPROFLOXACIN], the zone of inhibition at 100 µg/mL in test [10], in test [12], in [14] and in [15] was 23 to 29 mm each time. Moreover, the MIC in [11] and in [13] was 0.25 to 8 µg/mL (≈ 0.754 to 24.1 µM) in each case.
For the compound `CCn1c(N2CCN(c3ccc([N+](=O)[O-])cc3)CC2)nn(CN2CCN(c3cc4c(cc3F)c(=O)c(C(=O)O)cn4CC)CC2)c1=S`, the MIC in test [3], in test [4], in [5], in [6], in [7] and in test [8] was 0.03 to 0.99 µg/mL (≈ 0.0451 to 1.49 µM) in each case. In test [9], the MIC is 0.03 to 0.99 µg/mL (≈ 0.0451 to 1.49 µM).
Regarding `CCn1cc(C(=O)O)c(=O)c2cc(F)c(N3CCN(Cn4nc(N5CCN(c6ccc([N+](=O)[O-])cc6)CC5)n(-c5ccccc5)c4=S)CC3)cc21`, the MIC in [3], in test [4], in test [5], in test [6], in test [7] and in test [8] was 0.03 to 0.99 µg/mL (≈ 0.042 to 1.39 µM) each time. Further, in [9], the MIC lay in the range of 0.03 to 0.99 µg/mL (≈ 0.042 to 1.39 µM).
For the compound `CCn1cc(C(=O)O)c(=O)c2cc(F)c(N3CCN(Cn4nc(N5CCN(c6ccc([N+](=O)[O-])cc6)CC5)n(-c5ccc(F)cc5)c4=S)CC3)cc21`, the MIC in test [3], in test [4], in [5], in test [6], in test [7] and in test [8] was 0.03 to 0.99 µg/mL (≈ 0.041 to 1.35 µM) throughout. Besides, in [9], the MIC was 0.03 to 0.99 µg/mL (≈ 0.041 to 1.35 µM).
As for `CC1(C)S[C@@H]2[C@H](NC(=O)[C@H](N)c3ccccc3)C(=O)N2[C@H]1C(=O)O` [AMPICILLIN], the MIC in test [3], in [4], in [5], in [6], in [7] and in test [8] was 10 to 128 µg/mL (≈ 28.6 to 366 µM) in each case. The MIC in [9] was 10 to 128 µg/mL (≈ 28.6 to 366 µM).
As to `CCn1cc(C(=O)O)c(=O)c2cc(F)c(N3CCN(Cn4nc(N5CCN(c6ccc([N+](=O)[O-])cc6)CC5)n(Cc5ccccc5)c4=S)CC3)cc21`, the MIC in [3], in test [4], in test [5], in test [6], in [7] and in test [8] was 0.03 to 0.99 µg/mL (≈ 0.0412 to 1.36 µM) in each case. In test [9], this compound came in with an MIC of 0.03 to 0.99 µg/mL (≈ 0.0412 to 1.36 µM).
As to `CCn1cc(C(=O)O)c(=O)c2cc(F)c(N3CCN(Cn4nc(N5CCN(c6ccc([N+](=O)[O-])cc6)CC5)n(-c5ccccc5)c4=O)CC3)cc21`, the MIC in [3], in test [4], in test [5], in test [6], in test [7] and in test [8] was 0.03 to 0.99 µg/mL (≈ 0.043 to 1.42 µM) each time. This compound registered an MIC in test [9] of 0.03 to 0.99 µg/mL (≈ 0.043 to 1.42 µM).
`CCn1cc(-c2nc(NC(=O)c3ccccc3)n[nH]2)c(=O)c2cc(Br)c(C)nc21`: the zone of inhibition at 10000 µg/mL in test [16], in test [19], in test [20], in test [21], in test [26] and in [28] was 20 to 40 mm in each case. For the same compound, the MIC in test [17], in [18], in test [22], in test [24], in [25] and in test [27] was 3.68 to 6.3 µM (≈ 1.67 to 2.86 µg/mL) throughout. The compound further gave an IC50 in [23] of 4.28 µM.
